{
  "source": "patent US10358442B2",
  "about": "“2-homopiperazine-1-yl-4H-1,3-benzothiazine-4-one derivatives and process for the preparation of 2-(homo)piperazine 1,3-benzothiazine-4-one hydrochlorides” (Ecole Polytechnique Federale De Lausanne (EPFL), priority 2015, dated 2019)",
  "data": [
    {"system": "M. tuberculosis NTB1", "format": "cell-based", "units": {"NTB1 MIC99": "µg/mL"}, "values": [
      {"smiles": "CCCCCN1CCCN(c2nc(=O)c3cc(C(F)(F)F)cc([N+](=O)[O-])c3s2)CC1.Cl", "note": "[Compound 2, 8-Nitro-2-(4-pentyl-1,4-diazepan-1-yl)-6-(trifluoromethyl)-4H-1,3-benzothiazin-4-one Hydrochloride]", "NTB1 MIC99": ">10"},
      {"smiles": "CCCCCCN1CCCN(c2nc(=O)c3cc(C(F)(F)F)cc([N+](=O)[O-])c3s2)CC1.Cl", "note": "[Compound 3, 2-(4-Hexyl-1,4-diazepan-1-yl)-8-nitro-6-(trifluoromethyl)-4H-1,3-benzothiazin-4-one Hydrochloride]", "NTB1 MIC99": ">10"},
      {"smiles": "Cl.O=c1nc(N2CCCN(CCC3CCCCC3)CC2)sc2c([N+](=O)[O-])cc(C(F)(F)F)cc12", "note": "[Compound 4, 2-[4-(2-Cyclohexylethyl)-1,4-diazepan-1-yl]-8-nitro-6-(trifluoromethyl)-4H-1,3-benzothiazin-4-one Hydrochloride]", "NTB1 MIC99": ">10"},
      {"smiles": "CCCCCCCN1CCCN(c2nc(=O)c3cc(C(F)(F)F)cc([N+](=O)[O-])c3s2)CC1.Cl", "note": "[Compound 5, 2-(4-Heptyl-1,4-diazepan-1-yl)-8-nitro-6-(trifluoromethyl)-4H-1,3-benzothiazin-4-one Hydrochloride]", "NTB1 MIC99": 13.8},
      {"smiles": "Cl.O=c1nc(N2CCCN(C3CCCCC3)CC2)sc2c([N+](=O)[O-])cc(C(F)(F)F)cc12", "note": "[Compound 6, 2-(4-Cyclohexyl-1,4-diazepan-1-yl)-8-nitro-6-(trifluoromethyl)-4H-1,3-benzothiazin-4-one Hydrochloride]", "NTB1 MIC99": 50.5},
      {"smiles": "Cl.O=c1nc(N2CCCN(CCc3ccccc3)CC2)sc2c([N+](=O)[O-])cc(C(F)(F)F)cc12", "note": "[Compound 7, 8-Nitro-2-[4-(2-phenylethyl)-1,4-diazepan-1-yl]-6-(trifluoromethyl)-4H-1,3-benzothiazin-4-one Hydrochloride]", "NTB1 MIC99": 27.1},
      {"smiles": "O=c1nc(N2CCN(CC3CCCCC3)CC2)sc2c([N+](=O)[O-])cc(C(F)(F)F)cc12", "note": "[PBTZ169, 2-[4-(cyclohexylmethyl)piperazin-1-yl]-8-nitro-6-(trifluoromethyl)-4H-1,3-benzothiazin-4-one, reference compound]", "NTB1 MIC99": ">100"}
    ]}
  ]
}
